According to ChEMBL document CHEMBL4334502, “Basimarols A, B, and C, Highly Oxygenated Pimarane Diterpenoids from Basilicum polystachyon” (J Nat Prod, 2019):
The source made the active and inactive calls. No cut-off for these calls is given here.

Legend:
MCF7 = experiment: Cytotoxicity against human MCF7 cells assessed as reduction in cell viability incubated for 6 days by SRB assay; assay type: functional, cell-based; settings: MCF7, 144 h
SK-MEL-28 = experiment: Cytotoxicity against human SK-MEL-28 cells assessed as reduction in cell viability incubated for 6 days by SRB assay; assay type: functional, cell-based; settings: SK-MEL-28, 144 h
NFF = experiment: Cytotoxicity against human NFF cells assessed as reduction in cell viability incubated for 6 days by SRB assay; assay type: cell-based; settings: 144 h
Dengue virus = experiment: Antiviral activity against DENV infected in African green monkey Vero cells assessed as reduction in plague formation incubated for 72 hrs by immunofluorescence assay; assay type: functional, organism-based
Kunjin virus = experiment: Antiviral activity against West Nile virus Kunjin infected in African green monkey Vero cells assessed as reduction in plague formation incubated for 72 hrs by immunofluorescence assay; assay type: functional
Influenza A virus = experiment: Antiviral activity against influenza virus H1N1 infected in MDCK cells assessed as reduction in plague formation incubated for 72 hrs by immunofluorescence assay; assay type: functional, organism-based
Influenza A virus H3N2 = experiment: Antiviral activity against influenza virus H3N2 infected in MDCK cells assessed as reduction in plague formation incubated for 72 hrs by immunofluorescence assay; assay type: functional, organism-based

With `C=C[C@]1(C)C[C@]2(O)[C@H](OC(C)=O)C(=O)[C@H]3C(C)(C)CC[C@H](O)[C@]3(COC(C)=O)[C@H]2C[C@@H]1OC(C)=O` the IC50 (MCF7) was 179 µM, the IC50 (SK-MEL-28) was greater than 200 µM and the IC50 (NFF) was greater than 200 µM. For the same molecule, the Activity (Dengue virus) was “Active”.

Work on `C=C[C@]1(C)C[C@@]2(O)[C@H](CC1=O)C13CO[C@@](O)([C@H]1[C@@](C)(COC(=O)c1ccccc1)CC[C@H]3O)[C@H]2OC(C)=O` yielded an IC50 (MCF7) of 57 µM, an IC50 (SK-MEL-28) of 70 µM and an IC50 (NFF) of 53 µM. The Activity (Dengue virus) was “Active”.

`C=C/C(C)=C/C[C@H]1C(C)=CC[C@@H]2[C@]1(C)CCC[C@@]2(C)C(=O)O` showed an IC50 (Dengue virus) of 1.4 µM, an IC50 (Kunjin virus) of 1.2 µM and an IC50 (Influenza A virus) of 4.1 µM. For the same molecule, the IC50 (Influenza A virus H3N2) was 18 µM.

`C=C1CC[C@@H]2[C@](C)(CO)[C@H](O)CC[C@@]2(C)[C@@H]1C/C=C1/C(=O)OC[C@H]1O` [ANDROGRAPHOLIDE] was tested, and the Activity (Dengue virus) was “Active”, the IC50 (Kunjin virus) was 100 µM and the Activity (Influenza A virus) was “inactive”. The Activity (Influenza A virus H3N2) was “inactive”.

Molecule `C=C[C@]1(C)C[C@@]23O[C@@H](OC(C)=O)C4([C@H]2C[C@@H]1O)[C@@H](O)CCC(C)(C)[C@@H]4C(=O)[C@H]3OC(C)=O` has an IC50 (MCF7) of 86 µM, an IC50 (SK-MEL-28) of 158 µM and an IC50 (NFF) of 95 µM. For the same molecule, the Activity (Dengue virus) was “Active”.
